Read-outs that look alike come from different tables or passages of the source. One block for each compound: values may come before it.
Columns and labels:
[1] = target: T1, α-glucosidase (EC3.2.1.20) (Saccharomyces cerevisiae, UniProt P53341); experiment: α-Glucosidase inhibition; format: biochemical
T1 construct: purchased Sigma Chemical Company
Protocol: The assay was conducted essentially according to the procedure of H. L. Lai, as described in Biochem. Biophys.
The α-glucosidase (EC3.2.1.20) was purchased from Sigma Chemical Company. The enzyme solution (100 μg/ml, 0.1 ml), 0.1 M phosphate buffer (pH 6.8, 2.55 ml), 10 mM nitrophenyl glucoside (0.1 ml), and a sample solution in DMSO (0.15 ml) were combined and incubated for 10 minutes at 37° C. After incubation, the hydrolysis was stopped by the addition of 1 ml of 16(w/v)% of sodium carbonate. Liberated p-nitrophenol was measured at 400 nm.

[2] = target: T2, invertase (or β-fructofuranosidase; EC 3.2.1.26) (Saccharomyces cerevisiae, UniProt P00724); experiment: Invertase inhibition; format: biochemical; conditions: 200 μg/ml; pH 4.5, sucrose substrate; read-out: % Inhibition of invertase enzyme activity
T2 construct: purchased Sigma Chemical Company
T2 sequence (P00724 20-532): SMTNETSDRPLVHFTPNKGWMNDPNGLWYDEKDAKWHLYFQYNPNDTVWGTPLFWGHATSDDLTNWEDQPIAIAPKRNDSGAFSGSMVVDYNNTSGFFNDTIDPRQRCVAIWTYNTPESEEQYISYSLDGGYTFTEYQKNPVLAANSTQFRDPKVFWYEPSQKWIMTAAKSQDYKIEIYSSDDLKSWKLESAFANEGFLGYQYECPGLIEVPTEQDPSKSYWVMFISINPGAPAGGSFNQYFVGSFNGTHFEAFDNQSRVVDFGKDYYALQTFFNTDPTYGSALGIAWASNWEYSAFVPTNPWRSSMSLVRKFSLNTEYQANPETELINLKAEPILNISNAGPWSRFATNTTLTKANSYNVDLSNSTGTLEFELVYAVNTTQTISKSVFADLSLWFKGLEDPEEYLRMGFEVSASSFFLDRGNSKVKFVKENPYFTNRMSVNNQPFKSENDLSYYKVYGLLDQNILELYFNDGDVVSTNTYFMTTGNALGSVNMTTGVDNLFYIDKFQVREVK
Protocol: The following phenols (compound numbers correspond to those designated in Example 1) were tested at a concentration of 200 μg/ml for their ability to inhibit invertase enzyme activity. The assay was conducted essentially according to the procedure of I. H. Segel, et al., as described in Biochemical Calculation, John Wiley Sons, New York, p. 287-290 (1976).
The invertase (or β-fructofuranosidase; EC 3.2.1.26) was purchased from Sigma Chemical Company. The enzyme solution (100 μg/ml, 0.1 ml), 0.2 M acetate buffer (pH 4.5, 0.2 ml), 0.5 M sucrose (0.2 ml), and a sample solution in water/DMSO (0.6 ml) were combined and incubated for 10 minutes at 37° C. After incubation, the hydrolysis was stopped by the addition of Nelson reagent. Liberated reduced sugar was measured at 500 nm by the method of Somogyi-Nelson [N. Nelson, et al., J. Biol. Chem., 153, 375 (1944)].

[3] = Effect on fat content of broiler chickens; format: in vivo; conditions: 27 days; for Fat Weight / Final Body Weight: broilers
Protocol: Four groups of 5 seven-day old broiler having an average weight of 129 g were used. A test diet was available ad libitum to all birds during the test period (27 days).
Control birds received no test compound. […] At the conclusion of the test, all birds were sacrificed and processed to determine fat weights and body weights. Feed intake was also recorded.

[4] = Effect on body weight of slightly obese mice, drug-food mixture; format: in vivo, mice (ICR); conditions: for Body weight change compared with control group (in words): 4 weeks; for Body weight gain, Week Four / Body weight gain, Week One / Body weight gain, Week Three / Body weight gain, Week Two: ad libitum, female ICR mice
Protocol: Slightly obese female mice (ICR) having an average weight of 20-25 g were used in these studies. Compound 1 (Example 1; anacardic acid) was administered as a drug-food mixture. Normal mouse chow was powdered and the drug added to achieve a final concentration of 1 mg (low dose), 3 mg (intermediate dose), and 10 mg (high dose) per 100 g of food. The powdered chow was then repelleted into its usual form. Control chow was similarly prepared without addition of drug. Four groups of ten animals were assigned to receive normal chow (controls) or the drug in the low dose, in the intermediate dose or in the high dose. The animals were fed ad libitum over a 4-week period.

[5] = Toxicity in mice over 4 weeks; format: in vivo; conditions: 300 mg/kg dose, over a period of 4 weeks
Text: This finding, combined with in vitro enzyme inhibiting activities, provides evidence that the naturally occurring phenols of the formula (I) have unexpected utility in treating obesity in a mammalian subject.

[6] = Effect on body fat in rats on carbohydrate enriched diet; format: in vivo, Sprague-Dawley rats; conditions: for Epididymal Fat Weight / Final Body Weight / Inguinal Fat Weight: male rats
Text: Male Sprague-Dawley weanling rats (Bioresearch Services, Oriental Yeast Co. Ltd.) of three weeks old were used in this study. They were allotted to two treatment groups of five rats when they weighed an average of about 65 g. The animals were fed carbohydrate enriched diets ad libitum for a period of 31 days.
Control rate received the above diet. Two groups received different levels of compound 1 (Example 1), 0.1% and 0.2%, respectively. At the conclusion of the test, all animals were sacrificed. Inguinal fat, epididymal fat, liver, kidney, spleen, lung, heart, thymus gland, brown adipose tissue and pectoral muscle were excised and weighted.

[7] = 10 minutes at 37° C., pH 6.8, nitrophenyl glucoside substrate
[8] = High dose, 10 mg per 100 g of food
[9] = Intermediate dose, 3 mg per 100 g of food
[10] = Low dose, 1 mg per 100 g of food

T1 sequence (P53341 whole entry): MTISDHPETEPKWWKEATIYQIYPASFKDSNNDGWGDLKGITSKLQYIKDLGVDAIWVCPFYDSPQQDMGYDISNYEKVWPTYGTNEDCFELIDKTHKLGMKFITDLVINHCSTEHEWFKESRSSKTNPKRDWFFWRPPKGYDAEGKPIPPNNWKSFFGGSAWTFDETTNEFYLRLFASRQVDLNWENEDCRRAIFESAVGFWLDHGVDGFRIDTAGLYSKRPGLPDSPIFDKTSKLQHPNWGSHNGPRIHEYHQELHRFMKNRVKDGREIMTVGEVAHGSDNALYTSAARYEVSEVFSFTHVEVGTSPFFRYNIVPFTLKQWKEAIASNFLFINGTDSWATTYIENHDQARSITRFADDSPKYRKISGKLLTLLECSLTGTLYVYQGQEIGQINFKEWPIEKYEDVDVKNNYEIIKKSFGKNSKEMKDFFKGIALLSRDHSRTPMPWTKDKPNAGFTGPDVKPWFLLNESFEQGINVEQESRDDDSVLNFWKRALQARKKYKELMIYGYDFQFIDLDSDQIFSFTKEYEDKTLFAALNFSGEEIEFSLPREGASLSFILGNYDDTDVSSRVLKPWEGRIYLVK

IC50 [1, 7]: 3.77 µM
SMILES: CCC/C=C\C/C=C\CCCCCCCc1cccc(O)c1C(=O)O [Compound 3, 6-[8(z), 11(z)-pentadecadienyl] salicylic acid]

SMILES: C=CC/C=C\C/C=C\CCCCCCCc1cccc(O)c1C(=O)O [Compound 4, 6-[8(z), 11(z), 14pentadecatrienyl] salicylic acid]
IC50 [1, 7]: 0.876 µM | inhibition at 200 µg/mL [2]: 73%

SMILES: CCCCCCCCCCCCCCCc1cccc(O)c1C(=O)O [Compound 1, 6 - Pentadecylsalicylic Acid]
Fat Weight ([3]; 0.1% in diet): 12 g | Final Body Weight ([3]; 0.1% in diet): 110 g | Fat Weight ([3]; 0.2% in diet): 10 g | Final Body Weight ([3]; 0.2% in diet): 108 g | Loss of the initial body weight ([3]; birds receiving anacardic acid in diet): approximately 10% | IC50 [1, 7]: 7.17 µM | Body weight change compared with control group (in words) [4, 8]: gained less weight than mice in the control group | Body weight gain, Week Four [4, 8]: +4.75 g | Body weight gain, Week One [4, 8]: +0.31 g | Body weight gain, Week Three [4, 8]: +4.13 g | Body weight gain, Week Two [4, 8]: +1.88 g | Body weight change compared with control group (in words) [4, 9]: gained less weight than mice in the control group | Body weight gain, Week Four [4, 9]: +5.00 g | Body weight gain, Week One [4, 9]: +0.56 g | Body weight gain, Week Three [4, 9]: +4.5 g | Body weight gain, Week Two [4, 9]: +2.13 g | Body weight change compared with control group (in words) [4, 10]: no significant deviation in body weight from the control group | Body weight gain, Week Four [4, 10]: +5.13 g | Body weight gain, Week One [4, 10]: +0.63 g | Body weight gain, Week Three [4, 10]: +4.63 g | Body weight gain, Week Two [4, 10]: +2.19 g | Toxicity [5]: no toxicity | Epididymal Fat Weight ([6]; 0.1% in diet, 31 days): 3.2 g | Final Body Weight ([6]; 0.1% in diet, 31 days): 301.6 g | Inguinal Fat Weight ([6]; 0.1% in diet, 31 days): 7.1 g | Epididymal Fat Weight ([6]; 0.2% in diet, 31 days): 3.7 g | Final Body Weight ([6]; 0.2% in diet, 31 days): 311.0 g | Inguinal Fat Weight ([6]; 0.2% in diet, 31 days): 7.5 g | Reduction in fat deposition ([6]; anacardic acid in the animal diet, statement on Tables 4 and 7 (broilers and rats)): ≥ 20% | Loss of initial body weight ([6]; rats receiving anacardic acid in diet, 31 days): less than 10%

IC50 [1, 7]: 151 µM
SMILES: CCC/C=C\C/C=C\CCCCCCCc1cc(O)c(C)c(O)c1 [Compound 11, 2-methyl-5-[8(z), 11(z)-pentadecadienyl] resorcinol]

IC50 [1, 7]: 268 µM
SMILES: CCCCCCCCCCCCCCCc1cc(O)cc(O)c1 [Compound 13, 5-Pentadecylresorcinol]

IC50 [1, 7]: 38.9 µM
SMILES: CCCCCCCCCCCCCCCc1cc(O)c(C)c(O)c1 [Compound 9, 2-Methyl-5-pentadecylresorcinol]

IC50 [1, 7]: 165 µM
SMILES: CCCCCC/C=C\CCCCCCCc1cc(O)c(C)c(O)c1 [Compound 10, 2-methyl-5-[8(z)-pentadecenyl]resorcinol]

SMILES: C=CC/C=C\C/C=C\CCCCCCCc1cc(O)cc(O)c1 [Compound 16, 5-[8(z), 11(z), 14-pentadecatrienyl]resorcinol]
IC50 [1]: 44.5 µM | inhibition at 200 µg/mL [2]: 32%

SMILES: C=CC/C=C\C/C=C\CCCCCCCc1cc(O)c(C)c(O)c1 [Compound 12, 2-methyl-5-[8(z), 11(z), 14-pentadecatrienyl]resorcinol]
IC50 [1, 7]: 170 µM | inhibition at 200 µg/mL [2]: 79%

IC50 [1, 7]: 483 µM
SMILES: CCCCCCCCCCCCCCCc1cccc(O)c1 [Compound 5, 3 - Pentadecylphenol]
